Several values for one entry are separate records, joined by “and”; a condition that tells them apart may be missing. Identical values can stand only once.
Experiment: isobaric coefficient of expansion
Conditions: Gas, Pressure calorimetry

N#N [nitrogen]
Conditions | isobaric coefficient of expansion
302.9 K, 15 kPa | 0.004 1/K
302.9 K, 30 kPa | 0.0036 1/K
302.9 K, 39.9 kPa | 0.00322 1/K
302.9 K, 60 kPa | 0.00262 1/K
302.9 K, 70 kPa | 0.00243 1/K
302.9 K, 80 kPa | 0.00224 1/K
302.9 K, 89.9 kPa | 0.00209 1/K
322.9 K, 13 kPa | 0.0036 1/K
322.9 K, 14 kPa | 0.0036 1/K
322.9 K, 15 kPa | 0.0036 1/K
322.9 K, 16 kPa | 0.0036 1/K
322.9 K, 18 kPa | 0.0036 1/K
322.9 K, 20 kPa | 0.0036 1/K
322.9 K, 30 kPa | 0.00333 1/K
322.9 K, 40 kPa | 0.00303 1/K
322.9 K, 60 kPa | 0.0025 1/K and 0.00251 1/K
322.9 K, 80 kPa | 0.00212 1/K
352.6 K, 14 kPa | 0.00309 1/K
352.6 K, 30 kPa | 0.00297 1/K and 0.00299 1/K
352.6 K, 40 kPa | 0.0026 1/K
352.6 K, 50 kPa | 0.00252 1/K
352.6 K, 60 kPa | 0.00232 1/K
352.6 K, 70 kPa | 0.00217 1/K
352.6 K, 80 kPa | 0.002 1/K
352.6 K, 90 kPa | 0.00186 1/K
422.2 K, 18 kPa | 0.00244 1/K
422.2 K, 22 kPa | 0.00249 1/K
422.2 K, 24 kPa | 0.00248 1/K
422.2 K, 26 kPa | 0.00238 1/K
422.2 K, 28 kPa | 0.00236 1/K
422.2 K, 30 kPa | 0.00236 1/K
422.2 K, 40 kPa | 0.00225 1/K
422.2 K, 50 kPa | 0.00206 1/K
422.2 K, 60 kPa | 0.00194 1/K
422.2 K, 70 kPa | 0.00184 1/K
422.2 K, 80 kPa | 0.00177 1/K
422.2 K, 90 kPa | 0.00165 1/K

— the NIST ThermoML archive (doi:10.1016/j.tca.2004.09.020)
